Substitutions are numbered along the chain they refer to. Entries after “also recorded” stand apart in the source; their conditions may differ.
How the values were obtained:
hVAChT W315A = molecular target: T1, hVAChT W315A (Homo sapiens, UniProt Q16572, W315A); assay: [3H]vesamicol saturation binding; conditions: pH 7.4
T1 sequence (Q16572 1-532 W315A): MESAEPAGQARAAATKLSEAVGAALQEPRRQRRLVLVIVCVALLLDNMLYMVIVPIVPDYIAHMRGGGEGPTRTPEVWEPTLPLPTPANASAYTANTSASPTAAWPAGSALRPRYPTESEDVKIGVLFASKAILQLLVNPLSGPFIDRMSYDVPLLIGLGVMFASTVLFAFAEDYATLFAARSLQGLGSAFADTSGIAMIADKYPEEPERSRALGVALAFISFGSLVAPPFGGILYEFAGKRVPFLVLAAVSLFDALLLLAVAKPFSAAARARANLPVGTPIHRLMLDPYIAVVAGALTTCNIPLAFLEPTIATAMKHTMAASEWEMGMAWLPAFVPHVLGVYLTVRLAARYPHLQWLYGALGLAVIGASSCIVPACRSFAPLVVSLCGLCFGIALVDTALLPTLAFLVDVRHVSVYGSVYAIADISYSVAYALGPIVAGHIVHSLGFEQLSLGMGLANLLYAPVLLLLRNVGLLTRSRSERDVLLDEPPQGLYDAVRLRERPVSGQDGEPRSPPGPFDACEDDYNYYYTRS

hVAChT W331L = molecular target: T2, hVAChT W331L (Homo sapiens, UniProt Q16572, W331L); assay: [3H]vesamicol saturation binding; conditions: pH 7.4
T2 sequence (Q16572 1-532 W331L): T1 sequence (Q16572 1-532 W315A) with A315W, W331L

hVAChT C391A = molecular target: T3, hVAChT C391A (Homo sapiens, UniProt Q16572, C391A); assay: [3H]vesamicol saturation binding; conditions: pH 7.4
T3 sequence (Q16572 1-532 C391A): T1 sequence (Q16572 1-532 W315A) with A315W, C391A

[1] = tested on: rat VAChT (rVAChT) W331 mutants; conditions: mutations of W331 in rVAChT; ref Ojeda et al. 2004; cited from earlier work
hVAChT M320A = molecular target: T4, hVAChT M320A (Homo sapiens, UniProt Q16572, M320A); assay: ACh equilibrium binding by competition against [3H]vesamicol
T4 sequence (Q16572 1-532 M320A): T1 sequence (Q16572 1-532 W315A) with A315W, M320A

hVAChT W331A = molecular target: T5, hVAChT W331A (Homo sapiens, UniProt Q16572, W331A); assay: as above
T5 sequence (Q16572 1-532 W331A): T1 sequence (Q16572 1-532 W315A) with A315W, W331A

Row | Kd (hVAChT M320A) [mM] | FHA, fraction of the ACh sites that have high affinity (hVAChT M320A; M320A hVAChT, pH 7.4) | ACh bound more weakly than by wild-type (hVAChT W331A; W331A hVAChT vs wild-type) [fold] | FHA, fraction of the ACh sites that have high affinity (hVAChT W331A; W331A hVAChT, pH 7.4, monophasic fit, FHA fixed to 1) | SMILES | Bmax, maximal specific [3H]vesamicol binding (VAChT expression level) (hVAChT W315A) [pmol/mg] | Bmax, maximal specific [3H]vesamicol binding (VAChT expression level) (hVAChT W331L) [pmol/mg] | Bmax, maximal specific [3H]vesamicol binding (VAChT expression level) (hVAChT C391A) [pmol/mg] | effect on vesamicol affinity [1]
1 | – | – | – | – | O[C@@H]1CCCC[C@H]1N1CCC(c2ccccc2)CC1 (racemic) [vesamicol, ( )-trans-2-(4-phenylpiperidino)cyclohexanol] | 26 ± 1 | 14 ± 1 | 34 ± 3 | no loss in affinity for vesamicol; also recorded: without affecting vesamicol affinity
2 | 9.2 ± 0.8 | 0.73 ± 0.11 | 11 | 1.0 | CC(=O)OCC[N+](C)(C)C [ACh, acetylcholine] | – | – | – | –

From paper PMC2962730 (Journal of neurochemistry, 2010)
